Results as given in patent US20050043262A1, “Novel specific inhibitor of the cyclin kinase inhibitor p21Waf1/Cip1 and methods of using the inhibitor” (priority 2000, published 2005).

Tests used:
A10 VSM cells = assay: [3H]thymidine incorporation (DNA synthesis) in A10 VSM cells; assay type: cell-based, rat
p21^Waf1/Cip1 [1] = assay: PMA-induced p21 level by Western blot in A431 cells; assay type: cell-based, human; conditions: 200 nM oligodeoxynucleotide, PMA 100 ng/ml up to 6 hours
Procedure: Western blots: Cells were grown to confluence in 6 cm culture dishes and serum deprived. After transfection and or treatment with appropriate agonist, the cells were washed with phosphate-buffered saline and lysed in lysis buffer and the supernatant was Western blotted as described (Weiss and Nuccitelli, 1992 J. Biol. Chem., 267, p. 5608-5613).
PMA is a potent inducer of p21^Waf1/Cip1 in a variety of different cell lines (Huang et al., 1995 Proc. Natl. Acad. Sci. US.A., 92, p. 4793-4797; Michieli et al., 1994 Cancer Res., 54, p. 3391-3395) and was employed to examine p21^Waf1/Cip1 levels after antisense transfection and confirm efficacy of translation to attenuate p21^Waf1/Cip1 levels. A431 cells were transfected with 200 nM antisense p21^Waf1/Cip1 (SEQ. ID NO.:1) or sense p21^Waf1/Cip1 oligodeoxynucleotide (SEQ. ID NO.:2). After overnight incubation in serum-free medium, the cells were stimulated with PMA (100 ng/ml) for the times indicated, lysed, and the lysates were Western blotted with p21^Waf1/Cip1 or α-actin antibody.

p21^Waf1/Cip1 [2] = assay: p21 protein level by Western blot in A10 VSM cells; assay type: cell-based, rat
Procedure: Western blots: Cells were grown to confluence in 6 cm culture dishes and serum deprived. After transfection and or treatment with appropriate agonist, the cells were washed with phosphate-buffered saline and lysed in lysis buffer and the supernatant was Western blotted as described (Weiss et al., 1998 Am. J. Physiol., 274, p. C1521-C1529).
To determine whether antisense transfection with p21^Waf1/Cip1 antisense oligonucleotides indeed decreases p21^Waf1/Cip1 protein levels, p21^Waf1/Cip1 levels after antisense transfection were examined employing the fact that PMA is a potent inducer of p21^Waf1/Cip1 (Huang et al., 1995 Proc. Natl. Acad. Sci. U.S.A., 92, p. 4793-4797; Michieli et al., 1994 Cancer Res., 54, p. 3391-3395). Since p21^Waf1/Cip1 protein levels were induced in VSM cells between 2 and 6 hours after PMA stimulation (FIG. 4), the p21^Waf1/Cip1 levels in transfected cells after similar times of PMA stimulation were examined. […] There was no effect of the p21^Waf1/Cip1 sense (SEQ. ID NO.:2) control oligodeoxynucleotide on cellular p21^Waf1/Cip1 levels (compare with FIG. 4).
To check for specificity of protein inhibition by the antisense p21^Waf1/Cip1 oligodeoxynucleotide (SEQ. ID NO.: 1), protein levels of p21^Waf1/Cip1 and p27^Kip1 after transfection with antisense p21^Waf1/Cip1 oligodeoxynucleotide (SEQ. ID NO.:1) were examined. In these experiments the ability of antisense oligodeoxynucleotides (SEQ. ID NO.:1) to inhibit maximally stimulated CKI expression (see FIG. 4) was assessed. The cells were stimulated with PMA for 4 hours at various times after overnight serum starvation.
(§1) Western blots: Cells were grown to confluence in 6 cm culture dishes and serum deprived. After transfection and or treatment with appropriate agonist, conditioned medium was removed and saved and the cells were washed with phosphate-buffered saline and lysed in lysis buffer. Both supernatant and cell lysate were normalized to the lysate protein concentrations and Western blotted as described (Weiss R H, et al. Am J Physiol 274:C1521-C1529, 1998).
To confirm that p21 levels were increased after exposure to ionizing radiation, and that the oligonucleotides inhibit this phenomenon in A10 cells, p21 protein levels under these conditions were assayed. […] With the exception of the initial decrease in p21 levels at ½ and 1 hours, the results with the control oligonucleotides were similar to that observed in non-transfected cells.
Adriamycin is a prototypical DNA damaging agent used in the treatment of a variety of cancers. The predominantly G2 arrest seen after Adriamycin treatment has been associated with an increase in p21 levels in some cell lines (Siu W Y, et al. FEBS Lett 461:299-305, 1999). In order to determine whether similar augmentation of p21 is seen in A10 VSM cells and whether the antisense p21 oligonucleotide is inhibiting this response, these cells were treated with Adriamycin either with or without first transfecting the cells with the antisense and control oligonucleotides. Confluent VSM cells were transfected with antisense oligonucleotide to p21 or random sequence control oligonucleotide as described above. After 24 hours, the cells were exposed to Adriamycin (500 ng/ml), lysed at the indicated times after exposure, and Western blotted with p21 antibody.
Using a random sequence phosphorothioate oligodeoxynucleotide (SEQ. ID NO.:3) as a control, the effect of the antisense oligodeoxynucleotide to p21 (400 nM) on p21 and α-actin protein expression in A10 VSM cells, was examined. The lysates, normalized for protein content, were Western blotted with either p21 or α-actin antibody.

caspase-3 = assay: Caspase-3 activation (cleavage product) by Western blot in VSM cells; assay type: cell-based, rat; conditions: Adriamycin experiment (FIG. 19b)
Procedure: FIGS. 19A and B depict how Caspase-3 is activated by antisense oligonucleotide to p21 but not early after radiation or Adriamycin, as described in Example III, infra. Confluent VSM cells were transfected with oligonucleotide in the concentration indicated, left in serum-containing media overnight, and exposed to (A) ionizing radiation (12 Gy) or (B) Adriamycin where indicated. 4 hours later, activation of caspase-3 was assessed by Western blotting. The arrowhead indicates the cleavage product of caspase-3 signifying its processing as an early step in apoptosis. Wortmannin (wort) is a positive control for apoptosis. […] The experiment shown is representative of two separate experiments.
as §1
In order to determine whether the potentiation of ionizing radiation and Adriamycin induced DNA synthesis inhibition by p21 antisense oligonucleotides is accompanied by apoptosis, caspase-3 activation in response to ionizing radiation was examined. Caspase-3 is an effector caspase whose activation (leading to apoptosis) results in a 20 kD cleavage product which can be assessed by Western blotting (McCarthy N J, Evan G I. Curr Top Dev Biol 36:259-278, 1998). This process is an early event in a cascade of reactions which ultimately leads to apoptosis, as is evident by the fact that inactivation of caspase-3 dramatically reduces apoptosis in several cell lines (Woo M, et al. Genes Dev 12:806-819, 1998).
VSM cells were transfected with antisense or control oligonucleotides overnight and then stimulated with ionizing radiation.

A431 cells = assay: [3H]thymidine incorporation (DNA synthesis) in A431 cells; assay type: cell-based, human; conditions: PMA 100 ng/ml
Procedure: FIG. 9A-D are bar graphs showing Antisense p21^Waf1/Cip1 oligodeoxynucleotide has no significant effect DNA synthesis in PMA-inhibitable A431 cells, as described in Example II, infra. […] A431 cells were placed in serum-free medium overnight and then stimulated with (A) PDGF-BB (30 ng/ml), (B) 10% serum-containing medium, or (C) PDGF-BB or PMA (100 ng/ml) for another 8 hours before [^3H]-thymidine was added for overnight incubation. (D) A10 VSM cells were transfected with sense and antisense p21^Waf1/Cip1 oligonucleotides as above and treated similarly to (B). DNA synthesis was assessed by [^3H]-thymidine incorporation and is expressed as mean ±s.e.m. of three wells per data point. The absolute counts differ between experiments due to different confluency of the cells. The experiments shown are representative of two separate experiments.
Cell culture and DNA synthesis: Cultures of A10 and A431 cells were obtained from American Type Culture Collection (Rockville Md), were maintained as described (Weiss et al. 1998, Am. J. Physiol. 274, C1521-C1529), and were used between passages 15 and 24 or 25 and 35, respectively. The cells were growth-arrested by placing them in serum-free quiescence medium, exposed to growth factors as indicated, and [^3H]thymidine incorporation assessed as previously described (Weiss and Nuccitelli, 1992, J. Biol. Chem. 267, 5608-5613).
This A431 data is in contrast with that obtained in a variety of VSM cell lines, where cell growth was inhibited by similar oligodeoxynucleotide concentrations in cell stimulated with both PDGF-BB and serum (FIG. 9d).

fibronectin = assay: Fibronectin production and secretion (immunoprecipitation/immunoblot); assay type: cell-based, rat; conditions: VSM cells, TGF-β, maximal level in lysate at higher doses
Procedure: Immunoprecipitations: VSM cells were grown to confluence. After incubation under appropriate conditions, the cells were washed with ice-cold phosphate-buffered saline and immediately lysed in lysis buffer (20 mM Tris [pH7.5], 150 mM NaCl, 1 mM EDTA, 1 mM EGTA, 1% Triton X-100, 2.5 mM sodium pyrophosphate, 1 mM β-glycerolphosphate, 1 mM Na3VO4, 1 μg/ml Leupeptin, 1 mM PMSF) at 4° C. The cells were scraped off with a rubber spatula and the insoluble material removed by centrifuging at 10,000× g for 10 min at 4° C. Protein concentration was determined by A595, and lysates containing equal amounts of protein were incubated with […] anti-fibronectin antibody at 4° C. overnight. Protein A-Sepharose beads were added and the resulting mixture was incubated for an additional 2 hours at 4° C. The beads were centrifuged in a microfuge for 20 sec, and the pellet was washed 3 times with cold lysis buffer. The supernatant was decanted, gel loading buffer was added to the precipitate, and the solution was boiled for 5 min, and centrifuged. The supernatant was electrophoresed on a 7.5% SDS-polyacrylamide gel with equal volumes of sample per lane. The proteins were electrophoretically transferred to nitrocellulose and probed with fibronectin antibody.
The p21 influences on matrix protein secretion in VSM cells were determined. […]

laminin = assay: Laminin production and secretion (immunoblot of lysate and conditioned media); assay type: cell-based, rat; conditions: control oligodeoxynucleotide transfected cells, TGF-β higher doses
Procedure: Western blots: Cells were grown to confluence in 6 cm culture dishes and serum deprived. After transfection and/or treatment with appropriate agonist, conditioned medium was removed and saved and the cells were washed with phosphate-buffered saline and lysed in lysis buffer. Both supernatant and cell lysate were normalized to the lysate protein concentrations and Western blotted as described (Weiss, R. H.; et al. Am. J. Physiol. 274: C1521-C1529; 1998).
The p21 influences on matrix protein secretion in VSM cells were determined. Levels of the matrix proteins laminin and fibronectin were examined in both TGF-β stimulated lysate and conditioned media of cells in which p21 expression had been attenuated. The cells were transfected with either antisense p21 (SEQ. ID NO.:1) (400 nM), or random sequence control (SEQ. ID NO.:3) (400 nM) oligodeoxynucleotide, and then stimulated with TGF-β at for 0.1 to 10 ng/ml for 4 hours. Conditioned media and cell lysate were collected, and both medium and lysate volumes were normalized for the protein content in total cell lysate to exclude any skewing of the data due to cell proliferation. The proteins were electrophoresed and immunoblotted with either fibronectin (after immunoprecipitation to eliminate extraneous bands which appeared in the absence of this procedure) or laminin antibody.

Molecule: 5′-ATGTCCGATCCTGGTGATGTC-3′ (sense ATGTCCGATCCTGGTGATGTC; DNA, backbone not given here) [Sense p21Waf1/Cip1 control oligodeoxynucleotide, reference compound]
- PDGF-stimulated DNA synthesis, dose/response (A10 VSM cells; A10 VSM cells, increasing oligodeoxynucleotide concentration up to 200 nM): no effect
- PMA-induced p21^Waf1/Cip1 levels (p21^Waf1/Cip1 [1]): no effect
- PMA-induced p21^Waf1/Cip1 levels (p21^Waf1/Cip1 [2]; A10 VSM cells, PMA stimulation up to 6 hours after transfection): no effect

Molecule: COc1cccc2c1C(=O)c1c(O)c3c(c(O)c1C2=O)C[C@@](O)(C(=O)CO)C[C@@H]3O[C@H]1C[C@H](N)[C@H](O)[C@H](C)O1 [Adriamycin, Adriamycin (doxorubicin), reference compound]
- caspase-3 activation (caspase-3): little effect
- growth inhibitory effect of Adriamycin (DNA synthesis) (A10 VSM cells; control oligonucleotide transfected VSM cells, 500 to 2000 ng/ml for 2 hours): plateaued
- p21 levels after Adriamycin exposure (p21^Waf1/Cip1 [2]; VSM cells, Adriamycin 500 ng/ml): increased

Molecule: CCCCCCCCCCCCCC(=O)O[C@@H]1[C@@H](C)[C@@]2(O)[C@@H](C=C(CO)C[C@]3(O)C(=O)C(C)=C[C@@H]23)[C@@H]2C(C)(C)[C@]12OC(C)=O [PMA, reference compound]
- growth of A431 cells with PMA (A431 cells): significant growth inhibition
- p21^Waf1/Cip1 protein levels after PMA stimulation (p21^Waf1/Cip1 [2]; non-transfected VSM cells, PMA 100 ng/ml, between 2 and 6 hours): induced

Molecule: TGF-β: growth factor TGF-β1 obtained from Upstate Biotechnology
- DNA synthesis in serum-starved cells (A10 VSM cells; A10 VSM cells, TGF-β 0.1 to 10 ng/ml for 24 hours): significantly reduced
- inhibitory effect of TGF-β on DNA synthesis in transfected cells (A10 VSM cells; antisense or control transfected A10 VSM cells, 10% serum, TGF-β 10 ng/ml): still present
- fibronectin production (fibronectin): induced fibronectin production
- laminin secretion (laminin): decrease laminin secretion at higher doses
